Marks after values point to notes of the source that are not given here. Strand notation (5' to 3'): a small letter for the sugar, then the base; units joined by * are phosphorothioate-linked, units joined directly phosphodiester-linked; [ ] holds rarer units or linkages, { } end groups; capitals alone tell only the bases. k = constrained ethyl (cEt); [5mC] = 5-methylcytosine; d = 2'-deoxy (DNA)
Test system: Yap1 mRNA
Test: Antisense inhibition of human Yap1 in A-431 cells by cEt gapmers, single dose (Example 2, RTS4814)
Format: cell-based
Outline: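 Yap1 mRNA levels, by real-time RT-PCR (RTS4814) and corrected for total RNA via RIBOGREEN, are given as percent of untreated cells. Gapmers (16-mer, cEt wings, phosphorothioate, 5-methylC) were delivered without transfection at 2,000 nM to A-431 cells for about 48 hours.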

[1] = Yap1 mRNA as percent of untreated control, A-431 cells, 3-10-3 cEt gapmers targeting SEQ ID NO.: 1, and 2, Table 30
[2] = Table 22, Yap1 mRNA as percent of untreated control, 3-10-3 cEt gapmers, single dose
[3] = Table 18, A-431 cells, 5,000 cells per well, free uptake, 2,000 nM modified oligonucleotide, approx. 48 hours, RTS4814, normalized to RIBOGREEN, Yap1 mRNA as percent of untreated control
[4] = Table 33, Yap1 mRNA, percent of untreated control, 3-10-3 cEt gapmers targeting SEQ ID NO.: 1, and 2
[5] = Table 25, Yap1 mRNA as percent of untreated control, 3-10-3 cEt gapmers targeting SEQ ID NO.: 1, and 2
[6] = Yap1 mRNA as percent of untreated control, A-431 cells, 3-10-3 cEt gapmers targeting SEQ ID NO.: 1, and 2, Table 31
[7] = Table 24, Yap1 mRNA as percent of untreated control, 3-10-3 cEt gapmers targeting SEQ ID NO.: 1, and 2
[8] = Table 19, A-431 cells, 5,000 cells per well, free uptake, 2,000 nM modified oligonucleotide, approx. 48 hours, RTS4814, normalized to RIBOGREEN, Yap1 mRNA as percent of untreated control
[9] = Table 6, A-431 cells, 5,000 cells per well, free uptake, 2,000 nM modified oligonucleotide, approx. 48 hours, RTS4814, normalized to RIBOGREEN, Yap1 mRNA relative to untreated control cells
[10] = Table 20, Yap1 mRNA, percent of untreated control, 3-10-3 cEt gapmers targeting SEQ ID NO.: 1 and 2
[11] = Table 32, Yap1 mRNA, percent of untreated control, 3-10-3 cEt gapmers targeting SEQ ID NO.: 1, and 2

## 1074256 (antisense k[5mC]*kA*k[5mC]*dT*dG*dG*dT*dG*dG*dA*d[5mC]*dT*dG*kG*kT*kG) [compound 1074256]
[1]
  YAP1 (% UTC): 64 % UTC

## 1074119 (antisense kG*k[5mC]*kA*d[5mC]*dT*d[5mC]*dG*dG*dA*d[5mC]*d[5mC]*dT*dG*k[5mC]*kG*kG) [Compound 1074119]
Table 21, Yap1 mRNA, percent of untreated control, 3-10-3 cEt gapmers targeting SEQ ID NO.: 1 and 2
  YAP1 (% UTC): 71 % UTC

## 1076104 (kA*k[5mC]*kG*dA*dA*dA*dT*dA*dG*dT*dA*dA*d[5mC]*kT*kG*kT; antisense) [Compound 1076104]
[2]
  YAP1 (% UTC): 24 % UTC

## 1075588 (kA*k[5mC]*kT*dT*dA*dT*dT*dA*dG*d[5mC]*dA*d[5mC]*d[5mC]*kT*kG*kG; antisense) [Compound 1075588]
[3]
  YAP1 (% UTC): 27 % UTC

## 1075795 (kG*kT*kA*dA*dT*dT*dA*dT*dA*dT*dA*d[5mC]*d[5mC]*k[5mC]*kA*k[5mC]; antisense) [compound 1075795]
[4]
  YAP1 (% UTC): 66 % UTC

## 1074315 (antisense kG*kA*kT*dT*dG*dA*dT*dA*dT*dT*d[5mC]*d[5mC]*dG*k[5mC]*kA*kT) [Compound 1074315]
[5]
  YAP1 (% UTC): 3 % UTC

## 1074385 (k[5mC]*kT*kT*d[5mC]*dA*dA*dG*dG*dT*dA*dG*dT*d[5mC]*kT*kG*kG; antisense) [compound 1074385]
[6]
  YAP1 (% UTC): 17 % UTC

## 1075018 (antisense k[5mC]*k[5mC]*kT*dT*dA*dA*dA*dG*dT*dG*dA*dT*dA*k[5mC]*kA*k[5mC]) [Compound 1075018]
[7]
  YAP1 (% UTC): 29 % UTC

## 1076517 (antisense k[5mC]*kA*kT*dA*dA*dT*dA*dA*dG*dA*d[5mC]*dT*dA*kA*kA*k[5mC]) [Compound 1076517]
[8]
  YAP1 (% UTC): 102 % UTC

## 716393 (kT*kT*kG*d[5mC]*dT*dG*d[5mC]*dT*dG*dG*dT*dT*dG*kG*kA*kG; antisense) [Compound 716393]
[9]
  YAP1 (% UTC): 46 % UTC

## 1074602 (antisense kT*k[5mC]*k[5mC]*dA*dG*d[5mC]*dT*dA*dA*d[5mC]*dT*d[5mC]*dA*kA*kA*kA) [Compound 1074602]
[7]
  YAP1 (% UTC): 24 % UTC

## 1074822 (kT*kA*kG*dA*dA*dA*dA*dG*dT*dG*dT*dT*dA*kA*kG*k[5mC]; antisense) [Compound 1074822]
[10]
  YAP1 (% UTC): 25 % UTC

## 1075186 (kA*kA*kA*dT*d[5mC]*dG*dA*dT*dT*dA*dT*dT*d[5mC]*kA*kG*kA; antisense) [compound 1075186]
[11]
  YAP1 (% UTC): 73 % UTC

## 1074310 (antisense kT*k[5mC]*k[5mC]*dG*d[5mC]*dA*dT*dT*dG*d[5mC]*d[5mC]*dT*dG*kT*kG*kG) [Compound 1074310]
[10]
  YAP1 (% UTC): 100 % UTC

## 1075688 (kG*kA*k[5mC]*dA*dA*dT*dA*dA*dA*d[5mC]*dA*dT*d[5mC]*kA*k[5mC]*k[5mC]; antisense) [Compound 1075688]
[2]
  YAP1 (% UTC): 12 % UTC

## 1075985 (kA*kT*kA*dT*d[5mC]*dG*dA*dA*dA*dA*dG*d[5mC]*dA*kA*kA*k[5mC]; antisense) [compound 1075985]
[6]
  YAP1 (% UTC): 82 % UTC

## 1076390 (kG*kA*kT*d[5mC]*dG*dA*dA*dA*dT*dA*dT*dT*d[5mC]*kG*kA*kG; antisense) [Compound 1076390]
[10]
  YAP1 (% UTC): 54 % UTC

## 1075537 (k[5mC]*kT*kT*dT*dA*dA*dT*dT*dA*d[5mC]*d[5mC]*d[5mC]*dA*kA*kG*kG; antisense) [compound 1075537]
[6]
  YAP1 (% UTC): 82 % UTC

## 1074404 (antisense kG*kG*k[5mC]*dT*dT*dA*dT*dG*dG*dA*dA*dA*dT*kT*kT*k[5mC]) [Compound 1074404]
[3]
  YAP1 (% UTC): 16 % UTC

## 1075242 (antisense k[5mC]*kA*kG*dG*dG*dA*dT*dA*dA*dT*dT*dA*d[5mC]*kT*kA*kA) [Compound 1075242]
[7]
  YAP1 (% UTC): 7 % UTC

## 1076010 (kT*kA*kT*dA*dA*dA*d[5mC]*dA*dA*dT*dA*dG*d[5mC]*kG*kA*kA; antisense) [Compound 1076010]
[7]
  YAP1 (% UTC): 44 % UTC

## 1074469 (k[5mC]*k[5mC]*k[5mC]*dA*d[5mC]*d[5mC]*dG*dA*d[5mC]*d[5mC]*d[5mC]*dT*dG*k[5mC]*k[5mC]*kA; antisense) [Compound 1074469]
[8]
  YAP1 (% UTC): 77 % UTC

## 1076112 (kA*kT*kT*d[5mC]*dA*dA*dA*dA*d[5mC]*d[5mC]*dA*d[5mC]*dG*kG*kA*kA; antisense) [compound 1076112]
[1]
  YAP1 (% UTC): 98 % UTC

## 1075494 (antisense kT*k[5mC]*kT*d[5mC]*dA*dA*d[5mC]*dA*dA*dT*dT*dT*dG*k[5mC]*kT*kA) [Compound 1075494]
[10]
  YAP1 (% UTC): 47 % UTC

## 1074867 (kT*kA*kA*d[5mC]*dA*dT*dA*dT*dG*dA*dG*d[5mC]*dA*kT*kG*k[5mC]; antisense) [compound 1074867]
[4]
  YAP1 (% UTC): 40 % UTC

## 1075346 (antisense kG*kT*kA*dA*dG*dT*dA*dA*dA*dA*d[5mC]*dT*dG*k[5mC]*kT*kG) [compound 1075346]
[11]
  YAP1 (% UTC): 16 % UTC

## 1075218 (k[5mC]*kT*kT*dA*dA*d[5mC]*dA*d[5mC]*dT*dG*dG*dT*dA*kA*kG*kA; antisense) [compound 1075218]
[11]
  YAP1 (% UTC): 97 % UTC

## 1076101 (kA*kA*kA*dT*dA*dA*dG*dG*dG*dA*d[5mC]*dT*dA*k[5mC]*kT*kT; antisense) [Compound 1076101]
[8]
  YAP1 (% UTC): 71 % UTC

## 1074436 (k[5mC]*kA*kT*dG*dA*dA*dG*d[5mC]*dA*dT*d[5mC]*dT*dG*kA*k[5mC]*kT; antisense) [Compound 1074436]
[3]
  YAP1 (% UTC): 31* % UTC

## 1074321 (antisense kG*kG*kG*d[5mC]*dT*dA*dA*d[5mC]*dT*d[5mC]*d[5mC]*dT*dG*kA*k[5mC]*kA) [compound 1074321]
[6]
  YAP1 (% UTC): 73 % UTC

## 1075306 (kT*kA*kA*dA*d[5mC]*dG*dA*dA*dA*d[5mC]*dA*d[5mC]*dG*kG*kG*kT; antisense) [Compound 1075306]
[7]
  YAP1 (% UTC): 30 % UTC

## 1074410 (antisense kT*kA*kG*dA*dG*dG*dA*dT*dT*dA*dA*dA*dG*kT*kA*kT) [Compound 1074410]
[7]
  YAP1 (% UTC): 32 % UTC

## 1075890 (antisense kG*kA*kT*dT*dA*dA*dA*dA*dG*dT*dA*dG*dG*k[5mC]*k[5mC]*k[5mC]) [compound 1075890]
[11]
  YAP1 (% UTC): 92 % UTC

## 1074257 (antisense kG*k[5mC]*kA*d[5mC]*dT*dG*dG*dT*dG*dG*dA*d[5mC]*dT*kG*kG*kT) [compound 1074257]
[6]
  YAP1 (% UTC): 29 % UTC

## 716531 (antisense kG*kG*kA*d[5mC]*dA*dT*dA*dA*dA*dA*d[5mC]*dA*dA*kG*kA*kG) [Compound 716531]
[9]
  YAP1 (% UTC): 65 % UTC

## 1075858 (antisense k[5mC]*k[5mC]*kT*dT*dA*dA*dA*d[5mC]*dA*dA*dT*d[5mC]*d[5mC]*k[5mC]*kT*kA) [compound 1075858]
[11]
  YAP1 (% UTC): 23 % UTC

## 1075347 (antisense k[5mC]*kA*kT*dA*dG*dG*dT*dA*dG*dG*d[5mC]*dA*dA*k[5mC]*kA*kA) [compound 1075347]
[4]
  YAP1 (% UTC): 20 % UTC

## 716570 (kA*kA*kG*dT*dG*dT*dT*dT*dA*dG*dG*d[5mC]*dA*kA*kG*k[5mC]; antisense) [Compound 716570]
[9]
  YAP1 (% UTC): 56 % UTC

## 716388 (kA*kG*kA*dG*dG*dT*dG*dG*dT*d[5mC]*dT*dT*dG*kT*kT*k[5mC]; antisense) [Compound 716388]
A-431 cells, 5,000 cells per well, free uptake, 2,000 nM modified oligonucleotide, approx. 48 hours, RTS4814, normalized to RIBOGREEN, Table 4, asterisk (*) = targets amplicon region of primer probe set
  YAP1 (% UTC): 55 % UTC

## 1074473 (k[5mC]*kA*kA*d[5mC]*d[5mC]*d[5mC]*d[5mC]*d[5mC]*d[5mC]*d[5mC]*dA*d[5mC]*d[5mC]*kG*kA*k[5mC]; antisense) [Compound 1074473]
Table 23, Yap1 mRNA as percent of untreated control, 3-10-3 cEt gapmers, single dose
  YAP1 (% UTC): 82 % UTC

## 1076420 (k[5mC]*k[5mC]*kA*dT*dA*dT*dA*dA*dT*dA*dA*d[5mC]*d[5mC]*k[5mC]*kA*kT; antisense) [Compound 1076420]
[3]
  YAP1 (% UTC): 26 % UTC

## 1075400 (antisense kT*kA*kG*d[5mC]*dA*dA*dT*dA*dG*dT*d[5mC]*dA*dG*kG*kT*kA) [Compound 1075400]
[2]
  YAP1 (% UTC): 11 % UTC

## 1075371 (k[5mC]*kT*kG*d[5mC]*dA*dA*dA*dA*dG*dT*dT*d[5mC]*dT*kT*kA*k[5mC]; antisense) [Compound 1075371]
[5]
  YAP1 (% UTC): 90 % UTC

Source: US11214803B2, “Modulators of YAP1 expression” (Ionis Pharmaceuticals, Inc., priority 2019, dated 2022)
